Assay results taken from patent US20240189319A1, “RIFAMYCIN ANALOGS IN COMBINATION WITH VANCOMYCIN AND USES THEREOF” (Regeneron Pharmaceuticals, Inc, priority 2021, published 2024).

Tests used:
[1] = system: S. aureus MRSA strain NRS384; experiment: S. aureus IV advanced disseminated infection mouse model, strain NRS384 (kidney burden); assay type: in vivo, Staphylococcus aureus; conditions: for kidney burden reduction in combination with vancomycin, compared with rifampicin plus vancomycin (in words): Example 3B versus Example 3A; for kidney burden, combination with vancomycin versus vancomycin alone (in words): 0.01-0.25 mg/kg + vancomycin
Experimental: (§1) To test the efficacy of rifamycin analogs (I) and (II) according to the disclosure in combination therapy with vancomycin in vivo, a 4-day intravenous disseminated infection model was utilized. S. aureus MSRA strain NRS384 or N315, where indicated, was grown overnight in tryptic soy broth (TSB) and sub-cultured to mid-logarithmic phase. Bacteria were then washed twice with PBS and resuspended in PBS at a concentration of 1.5×10^8 cfu/mL NRS384 or 6.0×10^8 N315. Six-week-old Balb/c mice were then infected intravenously through the tail vein with 100 uL of the bacterial suspension, for a final infectious dose of 1.5×10^7 cfu/mouse NRS384 or 6.0×10^7 N315. From one to three days post infection, indicated mice were treated with 110 mg/kg vancomycin subcutaneously twice daily where indicated. Rifamycin analogs (I) or (II) were administered subcutaneously at the indicated dose two days after infection. Mice were monitored for weight loss and body conditioning score throughout the infection. At four days post infection, mice were euthanized, and the S. aureus kidney burden was quantified by tissue homogenization followed by enumeration of colony forming units through serial dilution in PBS and plating onto trypticase soy agar plates. Data points represent the kidney burden from individual mice tested.
In this experiment, mice infected with S. aureus MSRA strain NRS384 were treated with vancomycin alone (control) or vancomycin in combination with 0.002 mg/kg to 25 mg/kg rifampicin, a commercially-available rifamycin analog control.
In this experiment, mice infected with S. aureus MSRA strain NRS384 were treated with vancomycin alone (control) or vancomycin in combination with 0.01-0.25 mg/kg rifamycin analog (I) or 0.01-0.25 mg/kg rifamycin analog (II).
In this experiment, mice infected with S. aureus MSRA strain NRS384 were treated with 25 mg/kg rifampicin (control) or 0.002-0.25 mg/kg rifamycin analog (II) alone or in combination with vancomycin, with vancomycin alone as a control.

[2] = system: S. aureus MRSA strain N315; experiment: S. aureus IV advanced disseminated infection mouse model, strain N315 (kidney burden); assay type: in vivo, Staphylococcus aureus; conditions: for Median cfu/kidney pair / kidney burden relative to limit of detection (in words) / bacterial load relative to limit of detection (in words): Example 3D; for Median cfu/kidney pair: day 4, LOD 250
Experimental: as §1
In this experiment, mice infected with S. aureus MSRA strain N315 were treated with 25 mg/kg rifampicin (control), or 0.01-0.75 mg/kg rifamycin analog (I), or 0.002-0.25 mg/kg rifamycin analog (II) in combination with vancomycin, with vancomycin alone as a control.

[3] = Example 3B, dose 0.01 mg/kg sc day 2 + vancomycin 110 mg/kg twice daily, day 4, LOD 250
[4] = Example 3B, dose 0.05 mg/kg sc day 2 + vancomycin 110 mg/kg twice daily, day 4, LOD 250
[5] = Example 3B, dose 0.25 mg/kg sc day 2 + vancomycin 110 mg/kg twice daily, day 4, LOD 250
[6] = dose 0.01 mg/kg + vancomycin 110 mg/kg twice daily
[7] = dose 0.05 mg/kg + vancomycin 110 mg/kg twice daily
[8] = dose 0.25 mg/kg + vancomycin 110 mg/kg twice daily

Q: Which results are given for `CO[C@H]1/C=C/O[C@@]2(C)Oc3c(C)c(O)c4c(O)c(c(/C=N/N5CCN(C)CC5)c(O)c4c3C2=O)NC(=O)/C(C)=C\C=C\[C@H](C)[C@H](O)[C@@H](C)[C@@H](O)[C@@H](C)[C@H](OC(C)=O)[C@@H]1C` [Rifampicin, reference compound]?
A: Median cfu/kidney pair ([1]; Example 3A, dose 0.002 mg/kg + vancomycin 110 mg/kg twice daily, day 4, LOD 250): 3.38E+06 cfu/kidney pair; Median cfu/kidney pair ([1]; Example 3A, dose 0.01 mg/kg + vancomycin 110 mg/kg twice daily, day 4, LOD 250): 3.00E+06 cfu/kidney pair; Median cfu/kidney pair ([1]; Example 3A, dose 0.05 mg/kg + vancomycin 110 mg/kg twice daily, day 4, LOD 250): 2.75E+06 cfu/kidney pair; Median cfu/kidney pair ([1]; Example 3A, dose 0.25 mg/kg + vancomycin 110 mg/kg twice daily, day 4, LOD 250): 2.50E+02 cfu/kidney pair; Median cfu/kidney pair ([1]; Example 3A, dose 25 mg/kg + vancomycin 110 mg/kg twice daily, day 4, LOD 250): 2.50E+02 cfu/kidney pair; Median cfu/kidney pair ([1]; Example 3C, dose 25 mg/kg + vancomycin 110 mg/kg twice daily, day 4, LOD 250): 2.50E+02 cfu/kidney pair; Median cfu/kidney pair ([1]; Example 3C, dose 25 mg/kg, without vancomycin, day 4, LOD 250): 7.07E+08 cfu/kidney pair; Median cfu/kidney pair ([2]; dose 25 mg/kg + vancomycin 110 mg/kg twice daily): 2.50E+02 cfu/kidney pair

Q: With `CO[C@H]1/C=C/O[C@@]2(C)Oc3c(C)c(O)c4c(=O)c(c5oc6cc(OCCN(C)C)ccc6nc-5c4c3C2=O)NC(=O)/C(C)=C\C=C\[C@H](C)[C@H](O)[C@@H](C)[C@@H](O)[C@@H](C)[C@H](OC(C)=O)[C@@H]1C` [Rifamycin analog (II)] as the compound, how does the “reduction in S. aureus kidney burden” value ([1]; 0.25 mg/kg as a monotherapy (Example 3C)) read?
A: ~3 logs

Q: What about the “kidney burden reduction in combination with vancomycin, compared with rifampicin plus vancomycin (in words)” value [1] of the same compound?
A: effective at reducing S. aureus kidney burden at lower doses than rifampicin

Q: And the “kidney burden, combination with vancomycin versus vancomycin alone (in words)” value ([1]; Example 3B)?
A: further reduced kidney burden

Q: And the Median cfu/kidney pair [1, 3]?
A: 2.50E+02 cfu/kidney pair

Q: What about the Median cfu/kidney pair [1, 4] of the same compound?
A: 2.50E+02 cfu/kidney pair

Q: What about the Median cfu/kidney pair [1, 5] of the same compound?
A: 3.38E+05 cfu/kidney pair

Q: What about the “S. aureus kidney burden relative to limit of detection (in words)” value ([1]; Example 3B, lowest tested dose 0.01 mg/kg + vancomycin) of the same compound?
A: below the limit of detection

Q: And the “combination with vancomycin versus monotherapies in reducing bacterial burden (in words)” value ([1]; Example 3C)?
A: more effective than either monotherapy

Q: And the “efficacy when rifamycin analog (II) and vancomycin are used in combination (in words)” value ([1]; Example 3C)?
A: enhanced

Q: And the Median cfu/kidney pair ([1]; Example 3C, dose 0.002 mg/kg + vancomycin 110 mg/kg twice daily, day 4, LOD 250)?
A: 2.50E+02 cfu/kidney pair

Q: What about the Median cfu/kidney pair ([1]; Example 3C, dose 0.002 mg/kg, without vancomycin, day 4, LOD 250) of the same compound?
A: 2.75E+07 cfu/kidney pair

Q: And the Median cfu/kidney pair ([1]; Example 3C, dose 0.01 mg/kg + vancomycin 110 mg/kg twice daily, day 4, LOD 250)?
A: 2.50E+02 cfu/kidney pair

Q: What about the Median cfu/kidney pair ([1]; Example 3C, dose 0.01 mg/kg, without vancomycin, day 4, LOD 250) of the same compound?
A: 5.13E+06 cfu/kidney pair

Q: What about the Median cfu/kidney pair ([1]; Example 3C, dose 0.05 mg/kg + vancomycin 110 mg/kg twice daily, day 4, LOD 250) of the same compound?
A: 2.50E+02 cfu/kidney pair

Q: What about the Median cfu/kidney pair ([1]; Example 3C, dose 0.05 mg/kg, without vancomycin, day 4, LOD 250) of the same compound?
A: 1.52E+08 cfu/kidney pair

Q: And the Median cfu/kidney pair ([1]; Example 3C, dose 0.25 mg/kg + vancomycin 110 mg/kg twice daily, day 4, LOD 250)?
A: 3.75E+02 cfu/kidney pair

Q: What about the Median cfu/kidney pair ([1]; Example 3C, dose 0.25 mg/kg, without vancomycin (monotherapy), day 4, LOD 250) of the same compound?
A: 2.13E+04 cfu/kidney pair

Q: And the “bacterial load relative to limit of detection (in words)” value (from here on “bacterial load relative to limit”) ([1]; Example 3C, low doses including 0.05 and 0.002 mg/kg, in combination with vancomycin)?
A: below the limit of detection

Q: What about the “kidney burden relative to limit of detection (in words)” value ([2]; 0.002-0.25 mg/kg + vancomycin) of the same compound?
A: at or near the limit of detection

Q: What about the Median cfu/kidney pair ([2]; dose 0.002 mg/kg + vancomycin 110 mg/kg twice daily) of the same compound?
A: 2.50E+02 cfu/kidney pair

Q: What about the Median cfu/kidney pair [2, 6] of the same compound?
A: 2.50E+02 cfu/kidney pair

Q: What about the Median cfu/kidney pair [2, 7] of the same compound?
A: 6.25E+02 cfu/kidney pair

Q: And the Median cfu/kidney pair [2, 8]?
A: 2.50E+02 cfu/kidney pair

Q: And the “bacterial load relative to limit” value ([2]; dose of 0.002 mg/kg in combination with vancomycin)?
A: below the limit of detection

Q: Which “kidney burden reduction in combination with vancomycin, compared with rifampicin plus vancomycin (in words)” value [1] does the source give for `CO[C@H]1/C=C/O[C@@]2(C)Oc3c(C)c(O)c4c(=O)c(c5oc6cc(OCCN(C)C)cc(O)c6nc-5c4c3C2=O)NC(=O)/C(C)=C\C=C\[C@H](C)[C@H](O)[C@@H](C)[C@@H](O)[C@@H](C)[C@H](OC(C)=O)[C@@H]1C` [Rifamycin analog (I)] here?
A: effective at reducing S. aureus kidney burden at lower doses than rifampicin

Q: What about the “kidney burden, combination with vancomycin versus vancomycin alone (in words)” value ([1]; Example 3B) of the same compound?
A: further reduced kidney burden

Q: And the Median cfu/kidney pair [1, 3]?
A: 5.88E+04 cfu/kidney pair

Q: And the Median cfu/kidney pair [1, 4]?
A: 5.75E+03 cfu/kidney pair

Q: And the Median cfu/kidney pair [1, 5]?
A: 2.50E+02 cfu/kidney pair

Q: What about the “kidney burden relative to limit of detection (in words)” value ([2]; 0.01-0.75 mg/kg + vancomycin) of the same compound?
A: at or near the limit of detection

Q: And the Median cfu/kidney pair [2, 6]?
A: 2.50E+02 cfu/kidney pair

Q: What about the Median cfu/kidney pair [2, 7] of the same compound?
A: 2.50E+02 cfu/kidney pair

Q: What about the Median cfu/kidney pair [2, 8] of the same compound?
A: 2.50E+02 cfu/kidney pair

Q: What about the Median cfu/kidney pair ([2]; dose 0.75 mg/kg + vancomycin 110 mg/kg twice daily) of the same compound?
A: 2.50E+02 cfu/kidney pair

Q: And the “bacterial load relative to limit” value ([2]; dose of 0.01 mg/kg in combination with vancomycin)?
A: below the limit of detection

Q: Which Median cfu/kidney pair ([1]; Example 3A, Balb/c mice, vancomycin alone 110 mg/kg sc twice daily days 1-3, day 4 post infection, limit of detection 250) does the source give for Vancomycin [reference compound] here?
A: 1.30E+06 cfu/kidney pair

Q: What about the Median cfu/kidney pair ([1]; Example 3B, vancomycin alone 110 mg/kg sc twice daily, day 4, LOD 250) of the same compound?
A: 3.50E+06 cfu/kidney pair

Q: What about the “efficacy when rifamycin analog (II) and vancomycin are used in combination (in words)” value ([1]; Example 3C) of the same compound?
A: enhanced

Q: And the Median cfu/kidney pair ([1]; Example 3C, vancomycin alone 110 mg/kg sc twice daily, day 4, LOD 250)?
A: 1.13E+06 cfu/kidney pair

Q: What about the “reduction in S. aureus kidney burden” value ([1]; vancomycin treatment alone (Examples 3A, 3B, 3C)) of the same compound?
A: 2-3 log

Q: What about the Median cfu/kidney pair ([2]; vancomycin alone 110 mg/kg sc twice daily) of the same compound?
A: 3.88E+04 cfu/kidney pair

Q: And the “reduction in S. aureus kidney burden” value ([2]; vancomycin treatment alone (Example 3D))?
A: ~4 log
